Among the data in paper PMC6868852, “Molecular cloning and characterization of a grapevine (Vitis vinifera L.) serotonin N-acetyltransferase (VvSNAT2) gene involved in plant defense” (BMC Genomics, 2019) are Km values, retold here.

This experiment relates to VvSNAT2. In words: HPLC product quantification; Lineweaver-Burk. It is filed as biochemical, Vitis vinifera. Conditions: acetyl-CoA 0.5 mM; 100 mM potassium phosphate pH 8.8; 30 min at 45 °C (Fig. 3 legend; Methods print below 30 °C).

As for `NCCc1c[nH]c2ccc(O)cc12` [serotonin], the Km – broadly, the substrate concentration at which the rate is half of its maximum – came out at 392 µM.
